Experimental data taken from US6255339A, “Tetrahydronaphthofuranone derivatives and process for producing the same” (Meiji Seika Kaisha, Ltd., priority 1996, dated 2001).

How the values were obtained:
progesterone receptor = molecular target: T1, progesterone receptor (Sus scrofa, UniProt D0EWS6); test: progesterone receptor binding inhibition ([^3 H]-progesterone, cytosol from uteri of hogs); conditions: [^3 H]-progesterone ligand, hog uterus cytosol, 60 min at 4° C.; read-out: Inhibitory activity (IC50) against progesterone receptor binding
T1 construct: from tissue; host or cells: hog uterus, cytosol (100,000×g supernatant)
T1 sequence (D0EWS6 1-934): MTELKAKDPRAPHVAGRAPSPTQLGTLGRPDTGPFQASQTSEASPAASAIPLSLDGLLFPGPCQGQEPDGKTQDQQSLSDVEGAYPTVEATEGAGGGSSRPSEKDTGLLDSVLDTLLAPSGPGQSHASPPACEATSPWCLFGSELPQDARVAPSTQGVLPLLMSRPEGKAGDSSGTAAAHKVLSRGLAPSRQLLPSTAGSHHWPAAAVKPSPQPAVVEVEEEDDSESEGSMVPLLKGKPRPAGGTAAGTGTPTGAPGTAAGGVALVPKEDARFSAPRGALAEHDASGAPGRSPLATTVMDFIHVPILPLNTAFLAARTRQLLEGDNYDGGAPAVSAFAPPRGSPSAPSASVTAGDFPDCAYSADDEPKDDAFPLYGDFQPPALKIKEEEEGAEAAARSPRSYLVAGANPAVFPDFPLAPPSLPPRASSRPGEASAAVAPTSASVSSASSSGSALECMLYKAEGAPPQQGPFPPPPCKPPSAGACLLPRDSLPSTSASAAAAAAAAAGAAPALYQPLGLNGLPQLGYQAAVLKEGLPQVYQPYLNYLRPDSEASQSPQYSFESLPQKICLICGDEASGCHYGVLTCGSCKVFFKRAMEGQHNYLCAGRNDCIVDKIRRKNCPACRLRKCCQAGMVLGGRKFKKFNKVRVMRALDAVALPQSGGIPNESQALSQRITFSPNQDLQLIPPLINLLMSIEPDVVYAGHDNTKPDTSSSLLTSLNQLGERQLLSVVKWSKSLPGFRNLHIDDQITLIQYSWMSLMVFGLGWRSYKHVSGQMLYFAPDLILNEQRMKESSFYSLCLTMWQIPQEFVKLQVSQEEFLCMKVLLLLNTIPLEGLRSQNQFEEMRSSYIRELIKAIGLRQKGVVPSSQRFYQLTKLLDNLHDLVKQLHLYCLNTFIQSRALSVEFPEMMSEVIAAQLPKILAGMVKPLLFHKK
Description: That is, uteri taken from hogs in 5 mM phosphate buffer were disrupted using Polytron homogenizer, and the resulting solution was centrifuged (100,000×g, 30 min) to separate the supernatant, thereby preparing a cytosol containing progesterone receptor. […] Then, 100 μl of a 0.5% activated carbon solution was added to the reaction solution, and the mixture was allowed to stand for 10 min and then centrifuged (2,000×g, 10 min). The radioactivity of the supernatant was measured with a liquid scintillation counter.
Separately, the radioactivity was measured in the same manner as described above, except that no test drug was added. Further, the radioactivity was measured in the same manner as described above, except that 10 μl of Medroxyprogesterone Acetate (MPA) (10 μg/ml) was added instead of the test drug. The radioactivity with no test drug added was defined as the amount of total binding of [^3 H]-progesterone to the cytosol, and the radioactivity with MPA added was defined as the amount of non-specific binding. The inhibition ratio was calculated from these measured values by the following equation to determine the binding inhibitory activity (IC50). [formula]

Acute Toxicity = type: in vivo, SD male rat
Description: The compound of Example A4 dissolved in 0.2% of methylcellulose solution was hypodermically administered to SD male rat (16 weeks old) at a dose of 60 mg/kg.

Solubility = type: physicochemical; conditions: for Solubility (solvents in which soluble): organic solvents; for Solubility (solvents in which insoluble): water and hexane

## CC1=C2C[C@@]3(C)C(=C[C@H](O)[C@H](OC(=O)CCl)[C@@H]3C)C=C2OC1=O [Example A12, (4aR,5R,6R,7S)-6-Chloroacetoxy-7-hydroxy-4a,5,6,7-tetrahydro-3,4a,5-trimethylnaphtho[2,3-b]furan-2(4H)-one]
Progesterone receptor
  IC50: 0.083 µM

## CCC(=O)O[C@H]1CC=C2C=C3OC(=O)C=C3C[C@]2(C)[C@H]1C (relative stereo) [Example B28]
Progesterone receptor
  IC50: 0.066 µM

## CC1=C2C[C@@]3(C)C(=C[C@H](O)[C@H](OC(=O)C4CC4)[C@@H]3C)C=C2OC1=O [Example A17, (4aR,5R,6R,7S)-6-Cyclopropylcarbonyloxy-7-hydroxy-4a,5,6,7-tetrahydro-3,4a,5-trimethylnaphtho[2,3-b]furan-2(4H)-one]
Progesterone receptor
  IC50: 0.017 µM

## CC1=C2C[C@@]3(C)C(=C[C@H](OCc4ccccc4)[C@H](O)[C@@H]3C)C=C2OC1=O [Example A7, (4aR,5R,6R,7S)-7-Benzyloxy-6-hydroxy-4a,5,6,7-tetrahydro-3,4a,5-trimethylnaphtho[2,3-b]furan-2(4H)-one]
Progesterone receptor
  IC50: 2.84 µM

## CC(=O)O[C@H]1CC=C2C=C3OC(=O)C(C)=C3C[C@]2(C)[C@H]1C (relative stereo) [Example B2, (4aR*,5R*,6S*)-6-Acetoxy-4a,5,6,7-tetrahydro-3,4a,5-trimethylnaphtho[2,3-b]furan-2(4H)-one]
Progesterone receptor
  IC50: 0.055 µM

## CCC(=O)O[C@H]1[C@@H](OC(=O)CC)C=C2C=C3OC(=O)C(C)=C3C[C@]2(C)[C@H]1C [Example A4, (4aR,5R,6R,7S)-6,7-Dipropionyloxy-4a,5,6,7-tetrahydro-3,4a,5-trimethylnaphtho[2,3-b]furan-2(4H)-one]
Progesterone receptor
  IC50: 0.032 µM
Acute Toxicity; SD male rat (16 weeks old), hypodermic, 60 mg/kg in 0.2% methylcellulose
  survival: all the animals survived
Acute Toxicity; rat, in vivo, 60 mg/kg
  toxicity: no significant toxicity

## CCCC(=O)O[C@H]1CC=C2C=C3OC(=O)C(C)=C3C[C@]2(C)[C@H]1C (relative stereo) [Example B4, (4aR*,5R*,6S*)-6-Butyryloxy-4a,5,6,7-tetrahydro-3,4a,5-trimethylnaphtho[2,3-b]furan-2(4H)-one]
Progesterone receptor
  IC50: 0.053 µM

## CC1=C2C[C@@]3(C)C(=C[C@@H](O)[C@H](OC(=O)c4cccs4)[C@@H]3C)C=C2OC1=O [Example A45, (4aR,5R,6R,7R)-7-Hydroxy-6-(2-thiophencarbonyl)oxy-4a,5,6,7-tetrahydro-3,4a, 5-trimethylnaphtho[2,3-b]furan-2(4H)-one]
Progesterone receptor
  IC50: 0.029 µM

## CC(=O)O[C@@H]1CC=C2C=C3OC(=O)C(C)=C3C[C@@]2(C)[C@@H]1C [Example B42 (Nonnatural type)]
Progesterone receptor
  IC50: 0.797 µM

## CCO[C@@H]1C=C2C=C3OC(=O)C(C)=C3C[C@]2(C)[C@@H](C)[C@H]1OC(=O)c1cccs1 [Example A41, (4aR,5R,6R,7R)-7-Ethoxy-6-(2-thiophencarbonyl)oxy-4a,5,6,7-tetrahydro-3,4a,5-trimethylnaphtho[2,3-b]furan-2(4H)-one]
Progesterone receptor
  IC50: 0.4 µM

## CO[C@H]1C=C2C=C3OC(=O)C(C)=C3C[C@]2(C)[C@@H](C)[C@H]1OC(C)=O [Example A30, (4aR,5R,6R,7S)-6-Acetoxy-7-methoxy-4a,5,6,7-tetrahydro-3,4a, 5-trimethylnaphtho[2,3-b]furan-2(4H)-one]
Progesterone receptor
  IC50: 0.047 µM

## CC1=C2C[C@@]3(C)C(=C[C@H](O)[C@H](OC(=O)c4ccco4)[C@@H]3C)C=C2OC1=O [Example A3, (4aR,5R,6R,7S)-6-(2-Furancarbonyl)oxy-7-hydroxy-4a,5,6,7-tetrahydro-3,4a,5-trimethylnaphtho[2,3-b]furan-2(4H)-one]
Progesterone receptor
  IC50: 0.012 µM

## CC1=C2C[C@@]3(C)C(=C[C@H](O)[C@H](OC(=O)C4CCCCC4)[C@@H]3C)C=C2OC1=O [Example A19, (4aR,5R,6R,7S)-6-Cyclohexylcarbonyloxy-7-hydroxy-4a,5,6,7-tetrahydro-3,4a,5-trimethylnaphtho[2,3-b]furan-2(4H)-one]
Progesterone receptor
  IC50: 0.047 µM

## CC(=O)O[C@H]1CC=C2C=C3OC(=O)C=C3C[C@]2(C)[C@H]1C (relative stereo) [Example B27, (4aR*,5R*,6S*)-6-Acetoxy-4a,5-dimethyl-4a,5,6,7-tetrahydronaphtho [2,3-b]furan-2(4H)-one]
Progesterone receptor
  IC50: 0.039 µM

## C[C@H]1[C@@H](OC(=O)c2ccco2)CC=C2C=C3OC(=O)C=C3C[C@@]21C (relative stereo) [Example B30, (4aR*,5R*,6S*)-4a,5-Dimethyl-6-(2-furoyl)oxy-4a,5,6,7-tetrahydronaphtho[2,3-b]furan-2(4H)-one]
Progesterone receptor
  IC50: 0.06 µM

## CCC(=O)O[C@H]1C=C2C=C3OC(=O)C(C)=C3C[C@]2(C)[C@@H](C)[C@H]1O [Example A1, (4aR,5R,6R,7S)-6-Hydroxy-7-propionyloxy-4a,5,6,7-tetrahydro-3,4a,5-trimethylnaphtho[2,3-b]furan-2(4H)-one]
Progesterone receptor
  IC50: 1 µM

## CC(=O)O[C@H]1[C@@H](O)C=C2C=C3OC(=O)C(C)=C3C[C@]2(C)[C@H]1C [PF1092A]
Solubility
  Solubility (solvents in which soluble): soluble in chloroform, acetone, ethyl acetate, methanol and dimethyl sulioxide
  Solubility (solvents in which insoluble): insoluble in water and hexane

## CC1=C2C[C@@]3(C)C(=C[C@H](O)[C@H](OC(=O)c4ccc([N+](=O)[O-])cc4)[C@@H]3C)C=C2OC1=O [Example A23, (4aR,5R,6R,7S)-7-Hydroxy-6-(4-nitrobenzoyl)oxy-4a,5,6,7-tetrahydro-3,4a,5-trimethylnaphtho[2,3-b]furan-2(4H)-one]
Progesterone receptor
  IC50: 0.018 µM

## CCC(=O)O[C@H]1[C@H](OC)C=C2C=C3OC(=O)C(C)=C3C[C@]2(C)[C@H]1C [Example A10, (4aR,5R,6R,7R)-7-Methoxy-6-propionyloxy-4a,5,6,7-tetrahydro-3,4a,5-trimethylnaphtho[2,3-b]furan-2(4H)-one]
Progesterone receptor
  IC50: 0.075 µM

## CC1=C2C[C@@]3(C)C(=C[C@H](O)[C@H](OC(=O)c4ccccc4)[C@@H]3C)C=C2OC1=O [Example A21, (4aR,5R,6R,7S)-6-Benzoyloxy-7-hydroxy-4a,5,6,7-tetrahydro-3,4a,5-trimethylnaphtho[2,3-b]furan-2(4H)-one]
Progesterone receptor
  IC50: 0.027 µM

## CC1=C2C[C@@]3(C)C(=CC[C@H](OC(=O)c4ccccc4)[C@@H]3C)C=C2OC1=O (relative stereo) [Example B7, (4aR*,5R*,6S*)-6-Benzoyloxy-4a,5,6,7-tetrahydro-3,4a,5-trimethylnaphtho[2,3-b]furan-2(4H)-one]
Progesterone receptor
  IC50: 0.054 µM

## COCO[C@H]1C=C2C=C3OC(=O)C(C)=C3C[C@]2(C)[C@@H](C)[C@H]1OC(=O)c1ccccc1 [Example A8, (4aR,5R,6R,7S)-6-Benzoyloxy-7-methoxymethoxy-4a,5,6,7-tetrahydro-3,4a,5-trimethylnaphtho[2,3-b]furan-2(4H)-one]
Progesterone receptor
  IC50: 0.097 µM

## CC(=O)O[C@H]1CC=C2C=C3OC(=O)C(C)=C3C[C@]2(C)[C@H]1C [B42 (Natural type)]
Progesterone receptor
  IC50: 0.033 µM

## CC(=O)O[C@H]1C=C2C=C3OC(=O)C(C)=C3C[C@]2(C)[C@@H](C)[C@H]1O [PF1092B]
Solubility
  Solubility (solvents in which soluble): soluble in chloroform, acetone, ethyl acetate, methanol and dimethyl sulioxide
  Solubility (solvents in which insoluble): insoluble in water and hexane

## CC(=O)O[C@@H]1C=C2C=C3OC(=O)C(C)=C3C[C@]2(C)[C@@H](C)[C@H]1OC(=O)c1ccco1 [Example A44, (4aR,5R,6R,7R)-7-Acetoxy-6-(2-furancarbonyl)oxy-4a,5,6,7-tetrahydro-3,4a,5-trimethylnaphtho[2,3-b]furan-2(4H)-one]
Progesterone receptor
  IC50: 0.276 µM

## CCCNC(=O)O[C@H]1[C@@H](O)C=C2C=C3OC(=O)C(C)=C3C[C@]2(C)[C@H]1C [Example A6b, (4aR,5R,6R,7S)-7-Hydroxy-6-(n-propyl)carbamoyloxy-4a,5,6,7-tetrahydro-3,4a,5-trimethylnaphtho[2,3-b]furan-2(4H)-one]
Progesterone receptor
  IC50: 0.288 µM

## CC1=C2C[C@@]3(C)C(=C[C@H](O)[C@H](O)[C@@H]3C)C=C2OC1=O [PF1092C]
Solubility
  Solubility (solvents in which soluble): soluble in chloroform, acetone, ethyl acetate, methanol and dimethyl sultoxide
  Solubility (solvents in which insoluble): insoluble in water and hexane
